In brackets after ≈: the same amount, converted by molar mass.

Among the data in ChEMBL document CHEMBL1132017, “In vitro susceptibility of Helicobacter pylori to trifluoromethyl ketones” (1999) are MIC50 values, retold here.

The test relates to Helicobacter pylori. The test can be described thus: In vitro inhibitory activity evaluated against Helicobacter pylori (HP). The class given is functional.
For the compound `O=C(Cc1ccccn1)C(F)(F)F`, the MIC50 is > 100 µg/mL.
Regarding `O=C(c1cccs1)C(F)(F)F`, the MIC50 came out at 53 µg/mL (≈ 294 µM).
The figure for `CC[C@H]1OC(=O)[C@H](C)[C@@H](O[C@H]2C[C@@](C)(OC)[C@@H](O)[C@H](C)O2)[C@H](C)[C@@H](O[C@@H]2O[C@H](C)C[C@H](N(C)C)[C@H]2O)[C@](C)(O)C[C@@H](C)C(=O)[C@H](C)[C@@H](O)[C@]1(C)O` [ERYTHROMYCIN] is 1.8 µg/mL (≈ 2.45 µM).
With `CC[C@H]1OC(=O)[C@H](C)[C@@H](O[C@H]2C[C@@](C)(OC)[C@@H](O)[C@H](C)O2)[C@H](C)[C@@H](O[C@@H]2O[C@H](C)C[C@H](N(C)C)[C@H]2O)[C@](C)(OC)C[C@@H](C)C(=O)[C@H](C)[C@@H](O)[C@]1(C)O` [CLARITHROMYCIN] the figure was 1.9 µg/mL (≈ 2.54 µM); with `CC(=O)Cc1nc2ccccc2o1`, 51 µg/mL (≈ 291 µM); with `Cc1nc(CC(=O)C(F)(F)F)oc1C`, > 100 µg/mL.
With `O=C(Cc1nc2ccccc2[nH]1)C(F)(F)F` the figure was 52 µg/mL (≈ 228 µM).
In the case of `Cc1ncc([N+](=O)[O-])n1CCO` [METRONIDAZOLE], the MIC50 was 74 µg/mL (≈ 432 µM). The MIC50 values of the last two compounds are within 1.5-fold of each other.
The figure for `O=C(Cc1ccccc1)C(F)(F)F` is > 100 µg/mL; for `O=C(c1ccc[nH]1)C(F)(F)F` it is > 100 µg/mL; for `O=C(c1ccccc1)C(F)(F)F` it is > 100 µg/mL.
The figure for `Cn1c(C(=O)C(F)(F)F)cnc1-c1ccccc1` is > 100 µg/mL; for `O=C(Cc1nc2ccccc2o1)C(F)(F)F` it is 3.6 µg/mL (≈ 15.7 µM).
In turn, `O=C(Cc1nc2ccccc2s1)C(F)(F)F` had an MIC50 of 70 µg/mL (≈ 285 µM).
With `O=C(c1nc2ccccc2o1)C(F)(F)F` the figure was > 100 µg/mL.
With `O=C(c1c[nH]c2ccccc12)C(F)(F)F` the figure was 12 µg/mL (≈ 56.3 µM).

As a reminder, the MIC50 is the lowest concentration that inhibits either 50% of growth or 50% of the strains tested, depending on the study.
